Results reported in ChEMBL document CHEMBL4373720, “Discovery of Conformationally Restricted Human Glutaminyl Cyclase Inhibitors as Potent Anti-Alzheimer's Agents by Structure-Based Design” (J Med Chem, 2019).
Active and inactive are the calls of the source. No cut-off for these calls is given here.

Experiments:
[1] = target: hERG (KCNH2) (Homo sapiens, UniProt Q12809); test: Displacement of tracer red from human ERG at 10 uM by fluorescence polarization assay relative to control; conditions: probe tracer red
[2] = organism: Mus musculus; test: animal or person; conditions: ICR, central, 24 h, read-out: INH
[3] = Cytotoxicity against mouse HT22 cells assessed as cell viability at 10 uM measured after 18 hrs by MTT assay relative to control; type: cell-based, HT-22; conditions: read-out: Activity
[4] = test system: Mus musculus; test: Neuroprotection in human amyloid beta (3 to 40 residues)-induced ICR mouse model of Alzheimer's disease assessed as inhibition of human amyloid beta N3pE-40 level in brain at 25 mg/kg, ip measured after 24 hrs by sandwich ELISA relative to control; type: functional
[5] = Stability in mouse liver microsomes assessed as parent compound remaining measured after 30 mins; type: ADME, Microsome; conditions: read-out: Stability
[6] = Stability in human liver microsomes assessed as parent compound remaining measured after 30 mins; type: ADME, Microsome; conditions: read-out: Stability
[7] = organism: Mus musculus; conditions: ICR, 25 mg/kg

Chain of hERG (KCNH2) (Q12809 whole entry): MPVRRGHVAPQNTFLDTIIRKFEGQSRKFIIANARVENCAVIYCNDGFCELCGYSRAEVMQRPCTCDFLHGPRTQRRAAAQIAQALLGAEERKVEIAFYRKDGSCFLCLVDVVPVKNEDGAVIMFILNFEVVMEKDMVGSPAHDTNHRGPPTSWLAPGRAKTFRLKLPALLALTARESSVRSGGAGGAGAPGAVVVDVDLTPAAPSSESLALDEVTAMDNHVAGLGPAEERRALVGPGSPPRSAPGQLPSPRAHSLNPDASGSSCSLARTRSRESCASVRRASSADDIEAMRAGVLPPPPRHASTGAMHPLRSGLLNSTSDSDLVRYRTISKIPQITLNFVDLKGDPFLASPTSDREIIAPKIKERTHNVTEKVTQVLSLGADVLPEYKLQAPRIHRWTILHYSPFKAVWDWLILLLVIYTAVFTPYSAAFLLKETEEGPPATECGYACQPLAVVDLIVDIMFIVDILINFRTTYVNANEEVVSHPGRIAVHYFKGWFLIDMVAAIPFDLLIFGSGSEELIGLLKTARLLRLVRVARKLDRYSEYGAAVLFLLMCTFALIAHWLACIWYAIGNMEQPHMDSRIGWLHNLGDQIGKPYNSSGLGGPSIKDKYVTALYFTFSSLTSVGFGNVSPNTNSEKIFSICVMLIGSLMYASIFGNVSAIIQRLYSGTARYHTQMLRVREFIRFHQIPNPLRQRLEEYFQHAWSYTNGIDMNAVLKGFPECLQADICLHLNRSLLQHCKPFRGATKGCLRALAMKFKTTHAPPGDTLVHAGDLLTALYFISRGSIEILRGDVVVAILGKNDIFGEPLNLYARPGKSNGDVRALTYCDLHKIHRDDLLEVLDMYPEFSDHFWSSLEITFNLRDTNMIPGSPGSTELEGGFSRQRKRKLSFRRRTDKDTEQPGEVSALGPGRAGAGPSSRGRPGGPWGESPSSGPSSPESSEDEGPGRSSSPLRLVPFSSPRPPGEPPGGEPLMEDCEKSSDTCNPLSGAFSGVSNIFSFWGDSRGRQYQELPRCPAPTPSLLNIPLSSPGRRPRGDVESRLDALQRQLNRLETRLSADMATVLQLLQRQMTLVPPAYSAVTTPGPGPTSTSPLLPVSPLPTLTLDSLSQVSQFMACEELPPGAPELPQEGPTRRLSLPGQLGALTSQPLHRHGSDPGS

Row | Compound | inhibition at 10 µM [1] [%] | inhibition in vivo at 25 mg/kg [2] [%] | viability at 18 h, 10 µM [3] [%] | inhibition in vivo at 25 mg/kg [4] [%] | remaining at 0.5 h [5] [%] | remaining at 0.5 h [6] [%] | inhibition [7]
1 | COc1ccc(N(CCCCc2ccnc(NCCN)c2)C(=O)NCCCn2cncc2C)cc1OC | 40.8 | 13.7 | 82.2 | – | – | – | –
2 | COc1ccc(N(Cc2cccnc2)C(=O)NCCCn2cncc2C)cc1OC | 33.2 | 26 | 100 | 22.9 | 12.8 | 44 | –
3 | COc1ccc(N(C(=S)NCCCn2cncc2C)C2CCC2)cc1OC | 11.5 | – | 86.7 | – | – | – | inactive
4 | COc1ccc(N(CC(C)C)C(=O)NCCCn2cncc2C)cc1OC | 23.7 | – | 100 | – | – | – | inactive
5 | COc1ccc(N(CCCCc2ccnc(N)c2)C(=O)NCCCn2cncc2C)cc1OC | 48 | 24.4 | 100 | 22.7 | 21.6 | 43.1 | –
6 | COc1ccc(N(CC2CCCC2)C(=O)NCCCn2cncc2C)cc1OC | 29.6 | 2.96 | 100 | – | – | – | –
7 | COc1ccc(N(Cc2ccncc2)C(=S)NCCCn2cncc2C)cc1OC | 32.3 | 11.6 | 100 | – | – | – | –
8 | COc1ccc(N(C(=S)NCCCn2cncc2C)C2CCCC2)cc1OC | 31.8 | 1.17 | 81.7 | – | – | – | –
9 | COc1ccc(N(C(=O)NCCCn2cncc2C)C2CCCCC2)cc1OC | 12.2 | – | 88.6 | – | – | – | inactive
10 | COc1ccc(N(Cc2ccc(F)cc2)C(=O)NCCCn2cncc2C)cc1OC | 40.6 | – | 90.7 | – | – | – | inactive
11 | COc1ccc(N(Cc2cccnc2)C(=S)NCCCn2cncc2C)cc1OC | 34.5 | 5.31 | 89.3 | – | – | – | –
12 | COc1ccc(N(C(=S)NCCCn2cncc2C)C(C)C)cc1OC | 46.3 | 6 | 100 | – | – | – | –
13 | COc1ccc(N(Cc2ccccc2)C(=S)NCCCn2cncc2C)cc1OC | 71.5 | 15.3 | 80.4 | – | – | – | –
14 | COc1ccc(N(CC2CCCC2)C(=S)NCCCn2cncc2C)cc1OC | 60 | 2.96 | 100 | – | – | – | –
15 | COc1ccc(N(CC(C)C)C(=S)NCCCn2cncc2C)cc1OC | 39.9 | – | 100 | – | – | – | inactive
16 | CCN(C(=S)NCCCn1cncc1C)c1ccc(OC)c(OC)c1 | – | – | 88.4 | – | – | – | inactive
17 | COc1ccc(N(Cc2cccc(Cl)c2)C(=S)NCCCn2cncc2C)cc1OC | 86 | – | 88.2 | – | – | – | inactive
18 | COc1ccc(N(Cc2ccc(F)cc2)C(=S)NCCCn2cncc2C)cc1OC | 83.5 | – | 100 | – | – | – | inactive
19 | COc1ccc(N(C(=S)NCCCn2cncc2C)C2CCCCC2)cc1OC | 59.4 | 4.01 | 78.3 | – | – | – | –
20 | COc1ccc(N(Cc2ccc(Cl)cc2)C(=S)NCCCn2cncc2C)cc1OC | 86.8 | 0.73 | 100 | – | – | – | –
21 | COc1ccc(N(Cc2cccc(F)c2)C(=S)NCCCn2cncc2C)cc1OC | 77.6 | 6.66 | 91.7 | – | – | – | –
